In US20220389009A1, “SUBSTITUTED 1,6-NAPHTHYRIDINE INHIBITORS OF CDK5” (Goldfinch Bio, Inc., priority 2019, published 2022):
Where two headings read alike, the source gives them in different places.

Columns and labels:
CDK2/CycA2 = CDK2/CycA2 (Homo sapiens, UniProt P24941); test: CDK2 mobility shift assay (enzymatic activity of CDK2/CycA2); format: biochemical
Method: (§1) Compound potency was measured via a change in the enzymatic activity of CDK5/p25, and optionally of CDK2/CycA2. Enzymes, CDK5/p25 and CDK2/CycA2, were sourced from Carna Biosciences (Cat #04-106 and 04-103, respectively). Test compound stocks were diluted in 100% DMSO and serially diluted 3-fold in a 384-well plate using a TECAN EVO200 (TECAN). Staurosporine was used as a reference control compound in all assays.
(§2) Twenty nL of compound were transferred into a 384-well plate (Greiner 781201) using an Echo550 (Labcyte Inc). Enzyme, ATP, and 10 mM MgCl2 were preincubated at room temperature with the compound in assay buffer (50 mM HEPES pH 7.5, 1 mM EGTA, 0.01% Brij-35, 0.05% BSA, 2 mM DTT) for 30 minutes. Peptide substrate (FL peptide 29 (Perkin Elmer) for CDK5/p25; FL Peptide 18 (Perkin Elmer) for CDK2/CycA2) was added to initiate the reaction. The final assay contained 0.154 nM CDK5/p25 or 1.25 nM CDK2/CycA2, […] (for CDK5/p25) or 37 μM (for CDK2/CycA2) ATP, and 1.5 μM of the appropriate peptide substrate. The final DMSO concentration was <1%.
(§3) The CDK5/p25 reaction was incubated at room temperature for 60 min. The CDK2/CycA2 reaction was incubated at room temperature for 120 min. The reactions were quenched by the addition of 70 μL stopping buffer containing 0.5 M EDTA. Samples were analyzed using the EZ Reader (Perkin Elmer).
(§4) The results were expressed as % vehicle, where % vehicle=100×(U−C2)/(C1−C2), where U is the signal of sample, C1 is the average of the high controls (signal with no compound added), and C2 is the average of low controls (signal with the buffer in place of enzyme). The ICso is determined by fitting the percentage of inhibition as a function of compound concentrations using a 4-parameter fit defined as follows.
(§5) Y=Bottom+(Top−Bottom)/(1+10^((LobIC50-X)*Hill Slope)), where X is the log of the compound concentration, Y is the % vehicle or response at X, Top and Bottom are the plateaus in the same units as Y, and the Hill's Slope is unitless, and the ICso is the half-maximal inhibitory concentration.

CDK5/p25 = CDK5/p25 (Homo sapiens, UniProt Q00535); test: CDK5 mobility shift assay (enzymatic activity of CDK5/p25); format: biochemical; settings: for CDK5/CDK2 specificity: fold more active against CDK5 than CDK2
Method: as §1, §2, §3, §4, §5

[1] = 1.25 nM CDK2/CycA2, 37 μM ATP, FL Peptide 18, 120 min at room temperature, read-out: CDK2 IC50
[2] = 0.154 nM CDK5/p25, FL peptide 29, 60 min at room temperature, read-out: CDK5 IC50

CDK5/p25, sequence (Q00535 whole entry): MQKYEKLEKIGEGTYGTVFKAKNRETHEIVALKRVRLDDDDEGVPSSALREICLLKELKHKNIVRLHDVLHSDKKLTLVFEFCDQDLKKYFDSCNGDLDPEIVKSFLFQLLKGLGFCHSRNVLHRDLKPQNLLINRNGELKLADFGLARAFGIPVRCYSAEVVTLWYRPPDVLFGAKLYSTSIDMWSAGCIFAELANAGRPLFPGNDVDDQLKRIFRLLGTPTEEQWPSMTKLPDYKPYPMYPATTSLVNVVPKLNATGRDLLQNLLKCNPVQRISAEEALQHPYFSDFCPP
CDK5/p25, sequence (Q15078 99-307 partner limits assumed): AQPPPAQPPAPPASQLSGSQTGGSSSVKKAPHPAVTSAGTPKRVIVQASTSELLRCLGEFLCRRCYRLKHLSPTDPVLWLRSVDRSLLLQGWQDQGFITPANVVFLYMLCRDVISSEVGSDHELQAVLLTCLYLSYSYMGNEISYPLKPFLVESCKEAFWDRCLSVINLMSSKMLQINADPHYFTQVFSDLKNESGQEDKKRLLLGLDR

In the case of CN1CCC(C(O)(c2ccc3cnc(Nc4ccc(-n5cccn5)cc4F)cc3n2)C(F)(F)F)CC1 (single isomer, unassigned) [Compound 349, 2,2,2-trifluoro-1-(7-((2-fluoro-4-(1H-pyrazol-1-yl)phenyl)amino)-1,6-naphthyridin-2-yl)-1-(1-methylpiperidin-4-yl)ethan-1-ol], the IC50 (CDK2/CycA2; [1]) is reported as 10 to 100 nM, the IC50 (CDK5/p25; [2]) is reported as less than 10 nM and the CDK5/CDK2 specificity (CDK5/p25) is reported as “++ (greater than 10-fold and less than or equal to 100-fold more active against CDK5 than CDK2)”.

In the case of CN1CCC(C(C)(F)c2ccc3cnc(Nc4ccc(-n5cccn5)cc4F)cc3n2)CC1 (single isomer, unassigned) [Compound 359, 2-[1-fluoro-1-(1-methylpiperidin-4-yl)ethyl]-N-[2-fluoro-4-(pyrazol-1-yl)phenyl]-1,6-naphthyridin-7-amine], the IC50 (CDK2/CycA2; [1]) is reported as 10 to 100 nM, the IC50 (CDK5/p25; [2]) is reported as less than 10 nM and the CDK5/CDK2 specificity (CDK5/p25) is reported as “++ (greater than 10-fold and less than or equal to 100-fold more active against CDK5 than CDK2)”.

With CN1CCC(C(C)(F)c2ccc3cnc(Nc4ccc(-n5cccn5)cc4F)cc3n2)CC1 (single isomer, unassigned) [Compound 363, 2-[1-fluoro-1-(1-methylpiperidin-4-yl)ethyl]-N-[2-fluoro-4-(pyrazol-1-yl)phenyl]-1,6-naphthyridin-7-amine] the IC50 (CDK2/CycA2; [1]) was greater than 1000 nM, the IC50 (CDK5/p25; [2]) was 10 to 100 nM and the CDK5/CDK2 specificity (CDK5/p25) was “++ (greater than 10-fold and less than or equal to 100-fold more active against CDK5 than CDK2)”.

In the case of COC(c1ccc2cnc(Nc3ccc(-n4cccn4)cc3F)cc2n1)C1CCN(C)CC1 (single isomer, unassigned) [Compound 387, N-[2-fluoro-4-(pyrazol-1-yl)phenyl]-2-[methoxy(1-methylpiperidin-4-yl)methyl]-1,6-naphthyridin-7-amine], the IC50 (CDK2/CycA2; [1]) is reported as greater than 1000 nM, the IC50 (CDK5/p25; [2]) is reported as 100 to 1000 nM and the CDK5/CDK2 specificity (CDK5/p25) is reported as “++ (greater than 10-fold and less than or equal to 100-fold more active against CDK5 than CDK2)”.

In the case of COC(c1ccc2cnc(Nc3ccc(-n4cccn4)cc3F)cc2n1)C1CCN(C)CC1 (single isomer, unassigned) [Compound 391, N-[2-fluoro-4-(pyrazol-1-yl)phenyl]-2-[methoxy(1-methylpiperidin-4-yl)methyl]-1,6-naphthyridin-7-amine], the IC50 (CDK2/CycA2; [1]) is reported as greater than 1000 nM, the IC50 (CDK5/p25; [2]) is reported as 100 to 1000 nM and the CDK5/CDK2 specificity (CDK5/p25) is reported as “++ (greater than 10-fold and less than or equal to 100-fold more active against CDK5 than CDK2)”.

For CN(c1ccc2cnc(Nc3ccccc3F)cc2n1)C1CCNCC1 [Compound 100, N7-(2-fluorophenyl)-N2-methyl-N2-(piperidin-4-yl)-1,6-naphthyridine-2,7-diamine], the IC50 (CDK2/CycA2; [1]) was greater than 1000 nM, the IC50 (CDK5/p25; [2]) was 100 to 1000 nM and the CDK5/CDK2 specificity (CDK5/p25) was “++ (greater than 10-fold and less than or equal to 100-fold more active against CDK5 than CDK2)”.

O=C(O)CN(c1ccc2cnc(Nc3ccc(-n4ccc(CO)n4)cc3F)cc2n1)C1CCNCC1 [Compound 101, [[7-([2-fluoro-4-[3-(hydroxymethyl)pyrazol-1-yl]phenyl]amino)-1,6-naphthyridin-2-yl](piperidin-4-yl)amino]acetic acid] was tested, and the IC50 (CDK2/CycA2; CDK2 IC50) was greater than 1000 nM, the IC50 (CDK5/p25; CDK5 IC50) was 10 to 100 nM and the CDK5/CDK2 specificity (CDK5/p25) was “++ (greater than 10-fold and less than or equal to 100-fold more active against CDK5 than CDK2)”.

With OCc1ccn(-c2ccc(Nc3cc4nc(NC5CCNCC5)ccc4cn3)c(F)c2)n1 [Compound 102, [1-(3-fluoro-4-[[2-(piperidin-4-ylamino)-1,6-naphthyridin-7-yl]amino]phenyl)pyrazol-3-yl]methanol] the IC50 (CDK2/CycA2; [1]) was 100 to 1000 nM, the IC50 (CDK5/p25; [2]) was less than 10 nM and the CDK5/CDK2 specificity (CDK5/p25) was “++ (greater than 10-fold and less than or equal to 100-fold more active against CDK5 than CDK2)”.

For OCCN(c1ccc2cnc(Nc3ccc(-n4nccc4CO)cc3F)cc2n1)C1CCNCC1 [Compound 103, 2-[[7-([2-fluoro-4-[5-(hydroxymethyl)pyrazol-1-yl]phenyl]amino)-1,6-naphthyridin-2-yl](piperidin-4-yl)amino]ethanol], the IC50 (CDK2/CycA2; [1]) was 100 to 1000 nM, the IC50 (CDK5/p25; [2]) was 10 to 100 nM and the CDK5/CDK2 specificity (CDK5/p25) was “++ (greater than 10-fold and less than or equal to 100-fold more active against CDK5 than CDK2)”.

With OCCN(c1ccc2cnc(Nc3ccc(-n4ccc(CO)n4)cc3F)cc2n1)C1CCNCC1 [Compound 105, 2-[[7-([2-fluoro-4-[3-(hydroxymethyl)pyrazol-1-yl]phenyl]amino)-1,6-naphthyridin-2-yl](piperidin-4-yl)amino]ethanol] the IC50 (CDK2/CycA2; [1]) was 100 to 1000 nM, the IC50 (CDK5/p25; [2]) was 10 to 100 nM and the CDK5/CDK2 specificity (CDK5/p25) was “++ (greater than 10-fold and less than or equal to 100-fold more active against CDK5 than CDK2)”.

In the case of CS(=O)(=O)N(c1ccc2cnc(Nc3ccc(-n4cccn4)cc3F)cc2n1)C1CCNCC1 [Compound 106, N-(7-[[2-fluoro-4-(pyrazol-1-yl)phenyl]amino]-1,6-naphthyridin-2-yl)-N-(piperidin-4-yl)methanesulfonamide], the IC50 (CDK2/CycA2; [1]) is reported as greater than 1000 nM, the IC50 (CDK5/p25; [2]) is reported as greater than 1000 nM and the CDK5/CDK2 specificity (CDK5/p25) is reported as “+ (10-fold or less more active against CDK5 than CDK2)”.

Fc1cc(-n2cccn2)ccc1Nc1cc2nc(SC3CCNCC3)ccc2cn1 [Compound 107, N-[2-fluoro-4-(pyrazol-1-yl)phenyl]-2-(piperidin-4-ylsulfanyl)-1,6-naphthyridin-7-amine] was tested, and the IC50 (CDK2/CycA2; [1]) was 10 to 100 nM, the IC50 (CDK5/p25; [2]) was less than 10 nM and the CDK5/CDK2 specificity (CDK5/p25) was “++ (greater than 10-fold and less than or equal to 100-fold more active against CDK5 than CDK2)”.

OCc1ccn(-c2ccc(Nc3cc4nc(SC5CCNCC5)ccc4cn3)c(F)c2)n1 [Compound 108, [1-(3-fluoro-4-[[2-(piperidin-4-ylsulfanyl)-1,6-naphthyridin-7-yl]amino]phenyl)pyrazol-3-yl]methanol] was tested, and the IC50 (CDK2/CycA2; [1]) was 10 to 100 nM, the IC50 (CDK5/p25; [2]) was less than 10 nM and the CDK5/CDK2 specificity (CDK5/p25) was “++ (greater than 10-fold and less than or equal to 100-fold more active against CDK5 than CDK2)”.

With O=C(O)CN(c1ccc2cnc(Nc3ccc(-n4ccc(CO)n4)cc3F)cc2n1)[C@H]1CC[C@H](O)CC1 [Compound 110, [[7-([2-fluoro-4-[3-(hydroxymethyl)pyrazol-1-yl]phenyl]amino)-1,6-naphthyridin-2-yl][(1r,4r)-4-hydroxycyclohexyl]amino]acetic acid] the IC50 (CDK2/CycA2; [1]) was greater than 1000 nM, the IC50 (CDK5/p25; [2]) was 100 to 1000 nM and the CDK5/CDK2 specificity (CDK5/p25) was “+ (10-fold or less more active against CDK5 than CDK2)”.

In the case of COC(=O)CN(c1ccc2cnc(Nc3ccc(-n4ccc(CO)n4)cc3F)cc2n1)C1CCNCC1 [Compound 112, Methyl 2-[[7-([2-fluoro-4-[3-(hydroxymethyl)pyrazol-1-yl]phenyl]amino)-1,6-naphthyridin-2-yl](piperidin-4-yl)amino]acetate], the IC50 (CDK2/CycA2; [1]) is reported as greater than 1000 nM, the IC50 (CDK5/p25; [2]) is reported as 100 to 1000 nM and the CDK5/CDK2 specificity (CDK5/p25) is reported as “++ (greater than 10-fold and less than or equal to 100-fold more active against CDK5 than CDK2)”.

In the case of O=C(O)[C@@H]1CNCC[C@H]1Nc1ccc2cnc(Nc3ccc(-n4ccc(CO)n4)cc3F)cc2n1 [Compound 114, (3R,4R)-4-[[7-([2-fluoro-4-[3-(hydroxymethyl)pyrazol-1-yl]phenyl]amino)-1,6-naphthyridin-2-yl]amino]piperidine-3-carboxylic acid], the IC50 (CDK2/CycA2; [1]) is reported as greater than 1000 nM, the IC50 (CDK5/p25; [2]) is reported as greater than 1000 nM and the CDK5/CDK2 specificity (CDK5/p25) is reported as “+ (10-fold or less more active against CDK5 than CDK2)”.

For [O-][S@@+](c1ccc2cnc(Nc3ccc(-n4cccn4)cc3F)cc2n1)C1CCNCC1 [Compound 115, N-[2-fluoro-4-(pyrazol-1-yl)phenyl]-2-[(R)-piperidine-4-sulfinyl]-1,6-naphthyridin-7-amine], the IC50 (CDK2/CycA2; [1]) was 10 to 100 nM, the IC50 (CDK5/p25; [2]) was less than 10 nM and the CDK5/CDK2 specificity (CDK5/p25) was “++ (greater than 10-fold and less than or equal to 100-fold more active against CDK5 than CDK2)”.
